Source: patent publication US20060286130A1, “Sterile gelling agents” (priority 2005, published 2006)

How the values were obtained:
[1] = Sterilization by dry heat, appearance of the material; format: physicochemical; conditions: 180° C. for 2 hours
Procedure: Sorbitan monostearate (Sanyo, Japan) was subjected to sterilization by dry heat at a temperature of 180° C. for 2 hours. […] The material thus obtained though it would pass the test for sterility renders the final product unacceptable for pharmiaceutical use because of the dark brown color it imparts.

[2] = Sterilization by gamma irradiation, appearance / degradation of the gelling agent; format: physicochemical; conditions: 25 KGy, 60Cobalt source
Excerpt: In an additional embodiment of the invention, the sterile dried bulk gelling agent is subjected to sterilization by gamma irradiation. […] Other materials in the gelled polymeric dispersion can be processed by other techniques as described above and generally known in the art of preparation of sterile dosage forms.
Sorbitan monostearate prepared in Example 1 was exposed to gamma irradiation at a dose of 25 KGy using a ^60Cobalt source at a contract irradiation laboratory. A dose of 25 KGy is accepted internationally to be sufficient to ensure sterility (British Pharmacopoeia).

appearance after sterilization by dry heat [1] | change in appearance after gamma irradiation [2] | Substance
dark brown colored mass | – | Sorbitan monostearate [listing 1 of 2 here]
– | no change in appearance | Sorbitan monostearate [listing 2 of 2 here]
